{"source": "paper PMC5000617", "about": "“Antiproliferative and Pro-Apoptotic Effect of Novel Nitro-Substituted Hydroxynaphthanilides on Human Cancer Cell Lines” (International Journal of Molecular Sciences, 2016)", "format_in_all_cases": "cell-based, human", "key": {"[1]": {"experiment": "Annexin V-FITC/PI apoptosis assay by flow cytometry, THP-1", "conditions": "human, THP-1 cells, representative dot plot, read-out: quadrant I: viable cells", "procedure": "(§1) Staining of cells by Annexin V-FITC conjugate reflects the externalization of phosphatidylserine on the outer surface of the cell membrane as one of the early indicators of apoptosis.\n(§2) Early and late stages of apoptosis were detected using Annexin V-FITC Kit—Apoptosis Detection Kit faccording to the manufacturer´s instructions. […] At each time-point of incubation (12, 18, and 24 h) the cells were washed with ice-cold PBS prior to being resuspended at a concentration of 5 × 10^6 cells/mL in a total volume of 100 μL of 1× binding buffer. Annexin V-FITC solution (final concentration 0.25 μg/mL) and PI (final concentration 12.5 μg/mL) were added to each sample; the cell suspension was kept on ice and incubated for 15 min in the dark. After that, the analysis was carried out by flow cytometry. The data were evaluated using Kaluza Flow Cytometry Analysis 1.2. Per sample, a total number of 2 × 10^4 cells were analysed."}, "THP-1 cells": {"test_system": "THP-1 cells", "experiment": "Annexin V-FITC/PI apoptosis assay by flow cytometry, THP-1", "procedure": "as §1, §2"}, "caspase 9": {"test_system": "caspase 9", "experiment": "Western blot of caspase 9 in THP-1 cells", "conditions": "THP-1, 24 h, most pronounced at 10 μM", "procedure": "Most of the apoptotic signalling pathways are controlled by caspases that belong to a group of cysteine proteases. To assess whether compound 2 affects these signalling cascades and which pathway is activated (intrinsic or extrinsic), the activities of caspase 3, caspase 9, and caspase 8 were evaluated using Western blot analysis.\nFor Western blotting, cells were washed with PBS and lysed in lysis buffer (100 mM Tris-HCl, pH = 6.8; 20% glycerol; 1% SDS) containing protease and phosphatase inhibitor cocktails. Protein concentration was measured using Roti®-Quant universal (Carl Roth, Karsruhe, Germany) according to the manufacturer’s instructions. Cell lysates were supplemented with bromophenol blue (final concentration 0.01% (w/v)) and β-mercaptoethanol (final concentration 1% (v/v)) prior to being heated for 5 min at 95 °C. Equal amounts of protein (10 μg) were loaded into a 12% polyacrylamide gel, separated by SDS-polyacrylamide gel electrophoresis and subsequently electrotransferred onto nitrocellulose membranes. Reversible Ponceau S. staining was performed to assess equal sample loading. […] The intensity of bands was semi-quantitatively analysed using the ImageJ software (National Institute of Mental Health, Bethesda, MD, USA)."}}}
{"smiles": "O=C(Nc1cccc([N+](=O)[O-])c1)c1cc2ccccc2cc1O", "note": "[Compound 2, 3-hydroxy-N-(3-nitrophenyl)naphthalene-2-carboxamide]", "values": [{"measurement": "viability at 12 h, 2.5 µM", "setting": "[1]; THP-1, 2.5 μM, 12 h", "value": 92.1, "unit": "%"}, {"measurement": "viability at 18 h, 2.5 µM", "setting": "[1]; THP-1, 2.5 μM, 18 h", "value": 90.2, "unit": "%"}, {"measurement": "viability at 24 h, 2.5 µM", "setting": "[1]; THP-1, 2.5 μM, 24 h", "value": 87.8, "unit": "%"}, {"measurement": "viability at 12 h, 5 µM", "setting": "[1]; THP-1, 5 μM, 12 h", "value": 85.8, "unit": "%"}, {"measurement": "viability at 18 h, 5 µM", "setting": "[1]; THP-1, 5 μM, 18 h", "value": 76.7, "unit": "%"}, {"measurement": "viability at 24 h, 5 µM", "setting": "[1]; THP-1, 5 μM, 24 h", "value": 75.7, "unit": "%"}, {"measurement": "viability at 12 h, 10 µM", "setting": "[1]; THP-1, 10 μM, 12 h", "value": 64.9, "unit": "%"}, {"measurement": "viability at 18 h, 10 µM", "setting": "[1]; THP-1, 10 μM, 18 h", "value": 57.2, "unit": "%"}, {"measurement": "viability at 24 h, 10 µM", "setting": "[1]; THP-1, 10 μM, 24 h", "value": 44.6, "unit": "%"}, {"measurement": "double-stained (late apoptotic/secondary necrotic) cells", "setting": "THP-1 cells; THP-1, 10 µM, 12 h, mean", "value": 22.48, "unit": "%"}, {"measurement": "proportion of early apoptotic cells", "setting": "THP-1 cells; THP-1, 10 µM, 12 h, mean, control 2.41%", "value": 9.37, "unit": "%"}, {"measurement": "double-stained (late apoptotic/secondary necrotic) cells", "setting": "THP-1 cells; THP-1, 10 µM, 24 h, mean", "value": 41.88, "unit": "%"}, {"measurement": "pro-apoptotic effect", "setting": "THP-1 cells; THP-1, 2.5, 5, 10 µM, 12, 18, 24 h", "value": "induced a dose-dependent increase of the percentage of early apoptotic as well as late apoptotic/secondary necrotic"}, {"measurement": "cleaved caspase 9 levels", "setting": "caspase 9", "value": "significant increase of cleaved caspase 9 levels"}]}
